One block for each compound: values may come before it.
Experiments:
Protein phosphatase 1D = target: T1, Protein phosphatase 1D (Homo sapiens, UniProt O15297); assay: Inhibition of human Wip1 (2 to 420 residues) expressed in baculovirus-infected insect SF9 cells assessed as fluorescein diphosphate hydrolysis after 5 mins by fluorescence assay
T1 sequence (O15297 whole entry): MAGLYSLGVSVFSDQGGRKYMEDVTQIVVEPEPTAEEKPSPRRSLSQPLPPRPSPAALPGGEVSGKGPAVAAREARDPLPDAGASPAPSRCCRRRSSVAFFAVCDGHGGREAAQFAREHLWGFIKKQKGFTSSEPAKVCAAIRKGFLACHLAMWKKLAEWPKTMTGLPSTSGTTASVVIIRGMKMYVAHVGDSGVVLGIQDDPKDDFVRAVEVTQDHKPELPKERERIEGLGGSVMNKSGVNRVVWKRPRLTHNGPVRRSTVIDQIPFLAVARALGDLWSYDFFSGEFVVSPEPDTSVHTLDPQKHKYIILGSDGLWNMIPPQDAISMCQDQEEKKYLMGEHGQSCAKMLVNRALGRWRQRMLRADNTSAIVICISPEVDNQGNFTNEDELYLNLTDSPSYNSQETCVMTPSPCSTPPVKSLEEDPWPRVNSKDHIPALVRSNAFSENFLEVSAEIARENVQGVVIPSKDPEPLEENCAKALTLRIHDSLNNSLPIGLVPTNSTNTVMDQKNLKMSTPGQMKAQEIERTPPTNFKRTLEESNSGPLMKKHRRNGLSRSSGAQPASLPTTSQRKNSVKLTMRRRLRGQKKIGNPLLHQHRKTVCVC

Interleukin-2 = Interleukin-2 (Homo sapiens, UniProt P60568); assay: Binding affinity to human IL-2 measured over 30 mins by fluorescence polarization assay
Sequence of Interleukin-2 (P60568 whole entry): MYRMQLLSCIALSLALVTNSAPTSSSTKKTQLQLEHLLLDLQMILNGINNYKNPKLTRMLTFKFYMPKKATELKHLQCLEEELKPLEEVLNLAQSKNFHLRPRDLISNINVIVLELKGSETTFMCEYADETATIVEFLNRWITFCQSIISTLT

[1] = Binding affinity to HSP70 (unknown origin) by surface plasmon resonance method; set-up: species or system Homo sapiens
MAP kinase p38 = MAP kinase p38 (Homo sapiens, UniProt O15264+Q15759+Q16539+P53778); assay: Inhibition of p38 MAPK (unknown origin); assay type: protein assay
[2] = target: T2, 2',5'-phosphodiesterase 12 (Homo sapiens, UniProt Q6L8Q7); assay: Inhibition of human PDE12 (17 to 609 residues) expresssed in Escherichia coli BL21(DE3) cells using 2-5A as substrate assessed as AMP monomers and ATP formation after 30 mins by AMP-Glo assay
T2 sequence (Q6L8Q7 whole entry): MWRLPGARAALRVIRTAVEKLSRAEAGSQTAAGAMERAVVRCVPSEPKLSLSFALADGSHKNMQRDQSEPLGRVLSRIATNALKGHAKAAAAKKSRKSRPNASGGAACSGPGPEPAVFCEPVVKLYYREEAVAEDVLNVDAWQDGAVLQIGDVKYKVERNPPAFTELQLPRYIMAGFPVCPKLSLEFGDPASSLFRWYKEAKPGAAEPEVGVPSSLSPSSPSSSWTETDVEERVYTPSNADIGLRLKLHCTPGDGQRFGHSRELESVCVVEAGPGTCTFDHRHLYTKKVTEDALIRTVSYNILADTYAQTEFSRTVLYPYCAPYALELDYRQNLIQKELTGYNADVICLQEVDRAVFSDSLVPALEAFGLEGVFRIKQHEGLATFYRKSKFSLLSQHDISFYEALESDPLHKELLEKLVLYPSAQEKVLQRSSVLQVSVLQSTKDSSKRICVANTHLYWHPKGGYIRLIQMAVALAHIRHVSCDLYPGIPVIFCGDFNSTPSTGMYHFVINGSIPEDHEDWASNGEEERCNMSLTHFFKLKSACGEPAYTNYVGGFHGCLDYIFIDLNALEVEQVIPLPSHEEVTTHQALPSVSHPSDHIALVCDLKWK

[3] = target: Proto-oncogene tyrosine-protein kinase Src (Gallus gallus, UniProt P00523); assay: Inhibition of chicken Src kinase domain using AEEEIYGEFAKKK as substrate by continuous spectrophotometric assay
[4] = Binding affinity to human plasma AGP by isothermal titration calorimetry; assay type: ADME
[5] = Displacement of [3H]-3-(1-(3-chloro-6-isopropyl-8-(trifluoromethyl)imidazo[1,2-a]pyridine-2-carbonyl)piperidin-4-yl)oxazolidin-2-one from HCV genotype 1b C-terminal His6-tagged NS4B (1 to 261 residues) expressed in baculovirus infected insect SF9 cells; set-up: species or system Hepatitis C virus subtype 1b

IC50 (Protein phosphatase 1D): 6 nM
Compound: Cc1ncc(Cl)cc1NCc1ccc(C(=O)N[C@@H](CC2CCCC2)C(=O)NC2CC2)s1

Kd (Interleukin-2): 4.2 µM
Compound: CCCC#Cc1ccc(C[C@@H](NC(=O)CCn2c(C)cc3ccccc32)C(=O)O)cc1

Kd [1]: 0.64 nM
Compound: NC(=O)C(CNC(=O)c1ccc2[nH]nc(Br)c2c1)NC(=O)c1cccc(NC(=O)CCC(=O)c2ccc(-c3ccccc3)cc2)c1 (stereo not drawn)

IC50 (MAP kinase p38): 7 nM
Compound: CNC(=O)C(Cc1ccc2c(c1)COC(C)(C)O2)Nc1nc(O)nc(-n2ccc3ccc(C(=O)N4CCCc5ccccc54)cc32)n1 (stereo not drawn)

IC50 [2]: 0.8 nM
Compound: CCn1cc(-c2nc3cc(Br)c(C(=O)N4CCO[C@@H](c5ccc(F)cc5)[C@@H]4CO)cc3n2C)c2ccc(C#N)cc21

IC50 [3]: 4 nM
Compound: O=C1/C=C\C(=O)N[C@@H](CC2CCCCC2)C(=O)N[C@@H](Cc2ccccc2)C(=O)N[C@@H](CCCNC(=O)c2cnccn2)C(=O)NCC[C@@H](C(=O)O)N1

Kd [4]: 5.8 µM
Compound: Cc1ccc(S(=O)(=O)N(CC(=O)NCCOCCC(=O)NCCOCCC(=O)N[C@@H](CCCCNC(=O)/C=C/c2ccc(-c3ccccc3C(F)(F)F)o2)C(=O)O)c2ccccc2-c2ccccc2)cc1

Compound: O=C(c1ccc2[nH]ccc2c1)N1CCC2(CCCN(c3ncc(-c4ccccc4)c(-c4ccc(Cl)cc4)n3)C2)CC1
IC50 [5]: 42 nM

From ChEMBL document CHEMBL4425089, “Chemical Space of DNA-Encoded Libraries” (J Med Chem, 2016)
